Experimental data reported in patent publication US20250009676A1, “COMPOSITIONS AND METHODS FOR LEVODOPA DELIVERY” (PURDUE PHARMA L.P., priority 2021, published 2025).
“Also recorded” adds a separate entry of the source.

Experiments:
[1] = Plasma pharmacokinetics of L-DOPA and dopamine after intranasal dosing; conditions: rat, 1.2 mg/kg
[2] = Brain levels of L-DOPA and dopamine after intranasal dosing; conditions: rat, 1.2 mg/kg, 2 hours post-dosing
Excerpt: All brain levels are reported after subtraction of basal levels.

[3] = after intranasal L-DOPA administration, Nedorubov et al; cited from earlier work

N[C@@H](Cc1ccc(O)c(O)c1)C(=O)O [crystal L-DOPA, levodopa]
dopamine plasma concentration, single animals with a quantifiable value ([1]; GCPQ-L-DOPA: one rat, t=0.083 hours): 25 to 29 ng/mL
dopamine plasma concentration ([1]; limit of quantification 25 ng/ml, nearly all samples): below the limit of quantification
maximum plasma concentration of L-DOPA ([1]; plasma): 53.5 ± 22.7 ng/mL
time of maximum L-DOPA plasma concentration (Tmax) ([1]; plasma): 15 min
dopamine levels in the brain above basal levels (in words) [2]: below the LOQ; also recorded: below the level of detection
Cmax for L-DOPA in rat brain tissue [3]: 16.94±1.52
